Data reported in EP2952182A1, “Compounds and methods for increasing the immune response to papillomavirus” (Universitätsklinikum Heidelberg, priority 2014, dated 2015).

Columns and labels:
[1] = test system: cancer cell lines; settings: low-dose treatment; cited from earlier work
[2] = test system: Caski cells; assay: CD107a mobilization (degranulation) assay of L1-stimulated T cells against pretreated Caski cells; assay type: cell-based
Protocol: PBMCs were obtained from blood of a healthy, HLA-A*0201 positive donor by density gradient centrifugation with lymphocyte separation medium (PAA, Pasching, Austria). PBMCs were resuspended in RPMI medium (Gibco, Paisley, UK), containing 5% human serum and seeded in cell culture flasks. After 4 hours of adherence at 37°C the non-adherent cells were removed. To stimulate the differentiation of monocytes into dendritic cells, the adherent fraction of cells was cultured in CellGro Medium (CellGenix, Freiburg, Germany) containing GM-CSF (1000 U/ml, Promokine, Heidelberg, Germany) and IL-4 (666,7 U/ml, Promokine, Heidelberg, Germany) for 5-7 days. Then, IL-4 and GM-CSF were added again together with a terminal differentiation-inducing cocktail containing the proinffammatory cytokines IL-6 (1000 U/ml Promokine, Heidelberg, Germany), IL-1β (10 ng/ml Promokine, Heidelberg, Germany), PGE-2 ([…], Promokine, Heidelberg, Germany) and TNF-α (10 ng/ml, Promokine, Heidelberg, Germany) were added and cells were incubated overnight. […]
To monitor the degranulation of L1-stimulated T cells (effectors) induced by Caski cells (targets), Caski cells pretreated with different concentrations of 5-Aza-2'-deoxycytidine (0.1 µM and 1.0 µM) for 12 days or untreated cells were used. […] Degranulation rate was measured as the fraction of CD107a/CD8 double staining cells relative to total CD8 positive cells (Fig. 5).

[3] = test system: HPV16 L1 protein; assay: Detection of HPV L1 capsid protein by immunoblotting (Western blot) in treated Caski cells; assay type: cell-based; settings: Caski cells treated for 28 days, band at approximately 55 kDa, anti HPV16 L1 polyclonal rabbit antibodies, Fig. 4
Protocol: 5-aza-2'-deoxycytidine was added daily to cultures of Caski cells at concentrations […]. Caski cells were cultured with medium changed every 24 hours. Treatments were stopped at day 28 and the cells were grown in the absence of drugs for […]. The same culture conditions were used for untreated and DMSO treated Caski cells. Samples were collected on days 7, 14, 21, 28 and 38 for genomic DNA and total RNA purifications.
Protein extracts were also obtained from Caski cells on days 7, 14, 21, 28 and 38 of treatment. Cells were lysed in RIPA buffer containing Protease Inhibitor Cocktail (Sigma). Whole-cell lysates were prepared in denaturing SDS sample buffer and subjected to 12% SDS-PAGE. Proteins were transferred to PVDF Membrane (Invitrogen) and the blots were blocked with 5% non-fat dry milk in TBS-T buffer. The anti HPV16 L1 polyclonal rabbit antibodies (kindly provided by Dr Martin Muller, DKFZ, Germany) were used to detect the HPV16 L1 protein. Horseradish peroxidase conjugated secondary antibodies (1:2000 dilution, Anti-rabbit IgG, HRP-linked Antibody #7074 (Cell Signaling) were detected using Western Blotting Chemiluminescence Luminol Reagent (Santa Cruz).

SMILES: Nc1ncn([C@@H]2O[C@H](CO)[C@@H](O)[C@H]2O)c(=O)n1 [5-azacytidine]
- expression of immune-related genes [1]: leads to expression of immune-related genes

SMILES: Nc1ncn([C@@H]2O[C@H](CO)[C@@H](O)[C@H]2O)c(=O)n1 [azacitidine]
- cytolytic activity of T-cells stimulated in vitro with L1-derived peptides towards Caski cells ([2]; treated Caski cells expressing the L1-antigen, degranulation rate, Fig. 5 legend): Enhanced

SMILES: Nc1ncn([C@H]2C[C@H](O)[C@@H](CO)O2)c(=O)n1 [5-aza-2'-deoxycytidine]
- L1 protein expression level [3]: Significant increase
- fraction of T cells undergoing degranulation (CD107a/CD8 double staining cells relative to total CD8 positive cells) ([2]; Caski cells pretreated with 0.1 µM and 1.0 µM for 12 days vs untreated, effectors and targets 1:1, 5 hours, Fig. 5): increased
